Measurements as given in PubChem BioAssay AID202 (DTP/NCI, 2004).
Where “and” joins values, the source holds several entries; their conditions need not be identical. Identical values can stand only once.

Test system: HT29 xenograft, nude mice, s.c., tumor weight T/C%
Experiment: NCI In Vivo Anticancer Drug Screen. Data for tumor model HT29;CX-1 Human Adenocarcinoma (MER+) (subcutaneous) in NU/NU Swiss (nude) mice
Conditions: endpoint: optimum tumor weight change, higher = larger tumour
Method: The antitumor activity of compounds was measured in mice bearing transplantable tumors. Survival or tumor size were measured and the results are expressed as the measurement made in the treated group (T) divided by the measurement made in the vehicle treated control group (C). The tumor model used in this assay is HT29;CX-1 Human Adenocarcinoma (MER+) (subcutaneous) in NU/NU Swiss (nude) mice

[1] = dose: 100.0 mg/kg/injection, schedule: Q04DX003 (ip), vehicle: suspension in saline
[2] = dose: 200.0 mg/kg/injection, schedule: Q04DX003 (ip), vehicle: saline with Tween-80
[3] = dose: 200.0 mg/kg/injection, schedule: Q04DX003 (ip), vehicle: saline
[4] = dose: 400.0 mg/kg/injection, schedule: Q04DX003 (ip), vehicle: saline
[5] = dose: 50.0 mg/kg/injection, schedule: Q04DX003 (ip), vehicle: Klucel (hydroxypropylcellulose) (HPC)
[6] = dose: 100.0 mg/kg/injection, schedule: Q04DX003 (ip), vehicle: saline with Tween-80
[7] = dose: 25.0 mg/kg/injection, schedule: Q04DX003 (ip), vehicle: Klucel (hydroxypropylcellulose) (HPC)
[8] = dose: 100.0 mg/kg/injection, schedule: Q04DX003 (ip), vehicle: Klucel (hydroxypropylcellulose) (HPC)
[9] = dose: 200.0 mg/kg/injection, schedule: Q04DX003 (ip), vehicle: Klucel (hydroxypropylcellulose) (HPC)
[10] = dose: 50.0 mg/kg/injection, schedule: Q04DX003 (ip), vehicle: saline

For CN(CO)c1nc(N(C)CO)nc(N(C)CO)n1, the T/C (dose: 25.0 mg/kg/injection, schedule: Q01DX005 (ip), vehicle: Klucel (hydroxypropylcellulose) (HPC)) was 75 % of control, the T/C (dose: 25.0 mg/kg/injection, schedule: Q04DX005 (ip), vehicle: Klucel (hydroxypropylcellulose) (HPC)) was 62 % of control and the T/C (dose: 25.0 mg/kg/injection, schedule: Q07DX005 (ip), vehicle: Klucel (hydroxypropylcellulose) (HPC)) was 93 % of control. The T/C (dose: 50.0 mg/kg/injection, schedule: Q01DX005 (ip), vehicle: Klucel (hydroxypropylcellulose) (HPC)) was 102 % of control and 123 % of control, the T/C (dose: 50.0 mg/kg/injection, schedule: Q04DX005 (ip), vehicle: Klucel (hydroxypropylcellulose) (HPC)) was 119 % of control and 120 % of control and the T/C (dose: 50.0 mg/kg/injection, schedule: Q07DX005 (ip), vehicle: Klucel (hydroxypropylcellulose) (HPC)) was 99 % of control. The T/C [1] was 75 % of control, the T/C (dose: 100.0 mg/kg/injection, schedule: Q04DX005 (ip), vehicle: Klucel (hydroxypropylcellulose) (HPC)) was 99 % of control and 116 % of control and the T/C (dose: 100.0 mg/kg/injection, schedule: Q07DX005 (ip), vehicle: Klucel (hydroxypropylcellulose) (HPC)) was 48 % of control. For the same molecule, the T/C (dose: 200.0 mg/kg/injection, schedule: Q07DX005 (ip), vehicle: Klucel (hydroxypropylcellulose) (HPC)) was 47 % of control and 58 % of control.
CC(=O)Oc1ccc[nH]c1=O was tested, and the T/C [2] was 96 % of control and the T/C (dose: 400.0 mg/kg/injection, schedule: Q04DX003 (ip), vehicle: saline with Tween-80) was 111 % of control.
For COC1C(O)CC(OC2CC(OC3CC(O[C@@H]4C(=O)c5c(cc6cc(OC7CC(OC8CC(O)C(O)C(C)O8)C(O)C(C)O7)c(C)c(O)c6c5O)C[C@H]4[C@H](OC)C(=O)[C@@H](O)[C@@H](C)O)OC(C)C3O)OC(C)C2O)OC1C (some centres not stated), the T/C (dose: 1.5 mg/kg/injection, schedule: Q04DX003 (ip), vehicle: saline) was 52 % of control.
CNC=O was tested, and the T/C [3] was 168 % of control, the T/C [4] was 78 % of control and the T/C (dose: 800.0 mg/kg/injection, schedule: Q04DX003 (ip), vehicle: saline) was 104 % of control.
In the case of CSc1cc(=O)n2c3ccccc3c3ccnc1c32, the T/C (dose: 20.0 mg/kg/injection, schedule: Q04DX003 (ip), vehicle: saline with Tween-80) is reported as 101 % of control, the T/C (dose: 160.0 mg/kg/injection, schedule: Q04DX003 (ip), vehicle: saline with Tween-80) is reported as 89 % of control and 99 % of control and the T/C (dose: 320.0 mg/kg/injection, schedule: Q04DX003 (ip), vehicle: saline with Tween-80) is reported as 82 % of control. The T/C (dose: 640.0 mg/kg/injection, schedule: Q04DX003 (ip), vehicle: saline with Tween-80) was 81 % of control.
With O=C(O)C1(C(=O)O)CCC1.[NH2-].[NH2-].[Pt+2] the T/C (dose: 6.25 mg/kg/injection, schedule: Q04DX003 (ip), vehicle: dextrose) was 109 % of control and the T/C (dose: 25.0 mg/kg/injection, schedule: Q04DX003 (ip), vehicle: dextrose) was 69 % of control.
For Nc1nc(N)c2cc(CNc3ccc(C(=O)NC(CC(=O)O)CC(=O)O)cc3)ccc2n1, the T/C [5] was 84 % of control.
In the case of COc1cc([C@@H]2c3cc4c(c(O)c3C[C@H]3COC(=O)[C@@H]32)OCO4)cc(OC)c1O, the T/C (dose: 3.13 mg/kg/injection, schedule: Q04DX003 (ip), vehicle: saline) is reported as 63 % of control and the T/C (dose: 6.25 mg/kg/injection, schedule: Q04DX003 (ip), vehicle: saline) is reported as 53 % of control.
For O=Cc1ccc(O)c(O)c1, the T/C [6] was 94 % of control.
CCc1ccccc1N1CCN(C(=O)c2cc(OC)c(OC)c(OC)c2)CC1 was tested, and the T/C [7] was 108 % of control, the T/C [5] was 63 % of control and the T/C [8] was 75 % of control. The T/C [9] was 82 % of control.
With O=C1N(Cl)C(=O)C(c2ccc(Cl)cc2)(c2ccc(Cl)cc2)N1Cl the T/C [6] was 103 % of control and the T/C [2] was 108 % of control.
For CO[C@H]1C[C@](C)(O)Cc2cc3c(c(O)c21)C(=O)c1c(O)cc2c(c1C3=O)O[C@@H]1O[C@@]2(C)[C@H](O)[C@@H](N(C)C)[C@@H]1O, the T/C (dose: 3.13 mg/kg/injection, schedule: Q04DX003 (ip), vehicle: other) was 97 % of control, the T/C (dose: 6.25 mg/kg/injection, schedule: Q04DX003 (ip), vehicle: other) was 124 % of control and the T/C (dose: 12.5 mg/kg/injection, schedule: Q04DX003 (ip), vehicle: other) was 68 % of control. The T/C (dose: 25.0 mg/kg/injection, schedule: Q04DX003 (ip), vehicle: other) was 61 % of control and 75 % of control.
O=c1n[n+]([O-])ccn1C1OC(CO)C(O)C1O (configuration not stated) was tested, and the T/C [1] was 75 % of control, the T/C (dose: 200.0 mg/kg/injection, schedule: Q04DX003 (ip), vehicle: suspension in saline) was 71 % of control and the T/C (dose: 400.0 mg/kg/injection, schedule: Q04DX003 (ip), vehicle: suspension in saline) was 68 % of control. For the same molecule, the T/C (dose: 800.0 mg/kg/injection, schedule: Q04DX003 (ip), vehicle: suspension in saline) was 82 % of control.
For O=C/C(Cl)=C(/Cl)C(=O)O, the T/C (dose: 12.5 mg/kg/injection, schedule: Q04DX003 (ip), vehicle: saline with Tween-80) was 86 % of control.
For O=P1(NCCCl)OCCCN1CCCl (configuration not stated), the T/C (dose: 25.0 mg/kg/injection, schedule: Q04DX003 (ip), vehicle: suspension in saline) was 78 % of control and the T/C (dose: 50.0 mg/kg/injection, schedule: Q04DX003 (ip), vehicle: suspension in saline) was 108 % of control.
With CC(=O)c1c(O)c(C)c(O)c2c1OC1=CC(=O)C(C(C)=O)C(=O)C12C (configuration not stated) the T/C (dose: 50.0 mg/kg/injection, schedule: Q01DX003 (ip), vehicle: sodium bicarbonate) was 88 % of control, the T/C (dose: 100.0 mg/kg/injection, schedule: Q01DX003 (ip), vehicle: sodium bicarbonate) was 97 % of control and the T/C (dose: 200.0 mg/kg/injection, schedule: Q01DX003 (ip), vehicle: sodium bicarbonate) was 82 % of control.
In the case of Cc1c(N)nc([C@H](CC(N)=O)NC[C@H](N)C(N)=O)nc1C(=O)N[C@H](C(=O)N[C@H](C)[C@@H](O)CC(=O)N[C@H](C(=O)NC(O[C@@H]1O[C@@H](C)[C@@H](N)[C@@H](O)[C@H]1O)C(O)c1nc(-c2nc(C(=O)NCCCCN)cs2)cs1)[C@@H](C)O)[C@@H](O[C@@H]1O[C@@H](CO)[C@@H](O)[C@H](O)[C@@H]1O[C@H]1O[C@H](CO)[C@@H](O)[C@H](OC(N)=O)[C@@H]1O)c1c[nH]cn1 (some centres not stated), the T/C (dose: 4.0 mg/kg/injection, schedule: Q04DX003 (ip), vehicle: saline) is reported as 47 % of control, the T/C (dose: 8.0 mg/kg/injection, schedule: Q04DX003 (ip), vehicle: saline) is reported as 27 % of control and the T/C (dose: 16.0 mg/kg/injection, schedule: Q04DX003 (ip), vehicle: saline) is reported as 7 % of control.
In the case of COc1cccc2c1C(=O)c1c(O)c3c(c(O)c1C2=O)C[C@@](O)(C(=O)CO)C[C@@H]3OC1CC(N)C(OC)C(C)O1 (some centres not stated), the T/C (dose: 1.56 mg/kg/injection, schedule: Q04DX003 (ip), vehicle: saline) is reported as 80 % of control.
For CCCC(=O)OCc1cc(=O)n(C)c2c3c4c(cc12)c(C)cc(=O)n4CO3, the T/C [5] was 53 % of control.
With c1cc2n(n1)CCN2 the T/C [10] was 42 % of control, the T/C (dose: 100.0 mg/kg/injection, schedule: Q04DX003 (ip), vehicle: saline) was 50 % of control and the T/C [3] was 63 % of control. For the same molecule, the T/C [4] was 41 % of control.
For O=C1N[C@@H]([C@H]2CC[C@H](Cl)CN2)C(=O)N[C@H]1[C@H]1CC[C@H](Cl)CN1, the T/C (dose: 0.31 mg/kg/injection, schedule: Q01DX001 (ip), vehicle: water) was 53 % of control, the T/C (dose: 0.63 mg/kg/injection, schedule: Q01DX001 (ip), vehicle: water) was 64 % of control and the T/C (dose: 1.25 mg/kg/injection, schedule: Q01DX001 (ip), vehicle: water) was 79 % of control.
With CN(C)N=Nc1cn[nH]c1C(N)=O the T/C [7] was 69 % of control, the T/C [5] was 123 % of control and the T/C [8] was 79 % of control. For the same molecule, the T/C [9] was 88 % of control.
For COc1cccc2c1C(=O)c1c(O)c3c(c(O)c1C2=O)C[C@@](O)(C(=O)CO)C[C@@H]3OC1CC(N)CC(C)O1 (some centres not stated), the T/C (dose: 0.37 mg/kg/injection, schedule: Q04DX003 (ip), vehicle: water) was 63 % of control, the T/C (dose: 0.75 mg/kg/injection, schedule: Q04DX003 (ip), vehicle: water) was 54 % of control and the T/C (dose: 1.5 mg/kg/injection, schedule: Q04DX003 (ip), vehicle: water) was 39 % of control.
For Oc1ccc(O)cc1, the T/C [10] was 173 % of control.
For CCN(CC)CCCC(C)Nc1c2ccc(Cl)cc2nc2ccc(OC)cc12 (configuration not stated), the T/C (dose: 50.0 mg/kg/injection, schedule: Q04DX003 (ip), vehicle: saline with Tween-80) was 89 % of control and the T/C [2] was 91 % of control.
For CCOC(=O)Nc1cc2c(c(N)n1)N=C(CN(C)c1ccccc1)CN2, the T/C (dose: 12.5 mg/kg/injection, schedule: Q04DX003 (ip), vehicle: Klucel (hydroxypropylcellulose) (HPC)) was 74 % of control, the T/C [7] was 116 % of control and the T/C [5] was 71 % of control. The T/C [8] was 90 % of control.
